This passage reports MIC results from patent publication US4398029A, “Quinoline carboxylic acid derivatives and process for the preparation” (Kyorin Seiyaku Kabushiki Kaisha, priority 1981, dated 1983).

Values after ≈ are worked out from the molar mass of the structure shown.

One test relates to Shigella sonnei IID 969. The test is described as follows: microbe, parasite or virus in culture. The following applies: Shigella sonnei, IID969, Shigella sonnei IID 969; read-out: Minimum inhibitory concentration. Type of test: cell-based. On the procedure: (§1) The antibacterial activities of the compounds of the present invention were assayed by the standard agar dilution streak method against Gram-positive and Gram-negative bacteria [Chemotherapy, 22, 1126 (1974)].

In another test the test system is Proteus vulgaris 3167. The experiment in a line: Antibacterial activity (MIC), standard agar dilution streak method. Type of test: cell-based. The following applies: Proteus vulgaris, 3167, Proteus vulgaris 3167; read-out: Minimum inhibitory concentration. On the procedure:
as §1

For test [1], the system named is Bacillus subtilis PCI 219. The description is as above. Type of test: cell-based. As to conditions: PCI219; Bacillus subtilis PCI 219; read-out: Minimum inhibitory concentration. The procedure:
as §1

Test [2] has as its system Klebsiella pneumoniae IFO 3512. The test is described as above. Format: cell-based. As to conditions: Klebsiella pneumoniae, IFO3512, Klebsiella pneumoniae IFO 3512; read-out: Minimum inhibitory concentration. The procedure: as §1
The subject of another test is P. mirabilis IID 994. The test is described as above. As to conditions: Proteus mirabilis, IID994; P. mirabilis IID 994; read-out: Minimum inhibitory concentration. Type of test: cell-based. On the procedure:
as §1

Test [3] relates to Citrobacter freundii IID 976. The description is as above. The following applies: Citrobacter freundii, IID976, Citrobacter freundii IID 976; read-out: Minimum inhibitory concentration. Type of test: cell-based. The procedure: as §1
In test [4] the test system is Pseudomonas aeruginosa V-1. The test is described as above. The following applies: V1; Pseudomonas aeruginosa V-1; read-out: Minimum inhibitory concentration. Type of test: cell-based. The procedure: as §1
Test [5] deals with Salmonella enteritidis IID 604. The description is as above. Format: cell-based. The following applies: Salmonella enterica; Salmonella enteritidis IID 604; read-out: Minimum inhibitory concentration. The procedure: as §1
The subject of test [6] is Yersinia enterocolitica IID 981. Described as above. Type of test: cell-based. As to conditions: Yersinia enterocolitica, IID981, Yersinia enterocolitica IID 981; read-out: Minimum inhibitory concentration. The procedure: as §1
For test [7], the system named is Acinetobacter anitratus IID 876. Described as above. Type of test: cell-based. The following applies: Acinetobacter calcoaceticus, IID876, read-out: Minimum inhibitory concentration. On the procedure: as §1
Test [8] deals with Enterobacter cloacae IID 977. The description is as above. The following applies: Enterobacter cloacae, IID977, Enterobacter cloacae IID 977; read-out: Minimum inhibitory concentration. Format: cell-based. On the procedure: as §1
Test [9] deals with Escherichia coli NIHJ JC-2. The test is described as above. Type of test: cell-based. The following applies: Escherichia coli, NIHJJC2, Escherichia coli NIHJ JC-2; read-out: Minimum inhibitory concentration. On the procedure: as §1
Test [10] relates to Staphylococcus aureus 209 p. Described as above. Type of test: cell-based. The following applies: Staphylococcus aureus 209 p; read-out: Minimum inhibitory concentration. On the procedure: as §1
The next test concerns P. morganii IID 602. The description is as above. Type of test: cell-based. As to conditions: Morganella morganii, IID602, P. morganii IID 602; read-out: Minimum inhibitory concentration. The procedure:
as §1

Test [11] deals with Alcaligenes faecalis 0104002. The description is as above. As to conditions: Alcaligenes faecalis, 0104002, Alcaligenes faecalis 0104002; read-out: Minimum inhibitory concentration. Format: cell-based. The procedure:
as §1

The test system of test [12] is Serratia marcescens IID 618. The description is as above. Type of test: cell-based. The following applies: Serratia marcescens, IID618, Serratia marcescens IID 618; read-out: Minimum inhibitory concentration. The procedure:
as §1

Another test has as its system S. epidermidis IID 866. The test is described as above. Type of test: cell-based. The following applies: Staphylococcus epidermidis, IID866, read-out: Minimum inhibitory concentration. On the procedure:
as §1

The test system of the next test is E. coli ATCC 10536. Described as above. The following applies: Escherichia coli, ATCC10536, read-out: Minimum inhibitory concentration. Type of test: cell-based, Escherichia coli. The procedure: as §1
The subject of the next test is P. aeruginosa IFO 12689. Described as above. Type of test: cell-based, Pseudomonas aeruginosa. The following applies: Pseudomonas aeruginosa, IFO12689, P. aeruginosa IFO 12689; read-out: Minimum inhibitory concentration. On the procedure: as §1
The test system of another test is S. aureus Terajima. Described as above. Type of test: cell-based, Staphylococcus aureus. The following applies: Staphylococcus aureus; S. aureus Terajima; read-out: Minimum inhibitory concentration. The procedure:
as §1

In the case of `CCn1cc(C(=O)O)c(=O)c2cc(F)c(N3CCN(CCO)CC3)c(F)c21` [Example 8, 1-Ethyl-6,8-difluoro-1,4-dihydro-7-[4-(2-hydroxyethyl)-1-piperazinyl]-4-oxoquinoline-3-carboxylic acid], the MIC with Shigella sonnei IID 969 was 0.1 µg/mL (≈ 0.262 µM); in the test with Proteus vulgaris 3167, 0.1 µg/mL (≈ 0.262 µM); in test [1] it was 0.1 µg/mL (≈ 0.262 µM); in [2], no more than 0.05 µg/mL; with P. mirabilis IID 994 it was 0.2 µg/mL (≈ 0.524 µM); in test [3], 0.39 µg/mL (≈ 1.02 µM). Further, the MIC in [4] was 12.5 µg/mL (≈ 32.8 µM); in test [5] it was 0.78 µg/mL (≈ 2.05 µM); in test [6], 0.39 µg/mL (≈ 1.02 µM); in test [7], 1.56 µg/mL (≈ 4.09 µM); in [8], 0.39 µg/mL (≈ 1.02 µM); in test [9], no more than 0.05 µg/mL. Further, the MIC in [10] worked out at 0.78 µg/mL (≈ 2.05 µM); with P. morganii IID 602, 0.78 µg/mL (≈ 2.05 µM); in [11], 1.56 µg/mL (≈ 4.09 µM); in test [12], 0.78 µg/mL (≈ 2.05 µM); in the test with S. epidermidis IID 866 it was 0.78 µg/mL (≈ 2.05 µM); in the test with E. coli ATCC 10536, 0.2 µg/mL (≈ 0.524 µM). The results for the MIC in the test on P. aeruginosa IFO 12689 and in the test on S. aureus Terajima were 12.5 µg/mL (≈ 32.8 µM) and 0.78 µg/mL (≈ 2.05 µM), respectively.
Take `CCn1cc(C(=O)O)c(=O)c2cc(F)c(N3CCCC3)c(F)c21` [Example 11, 1-Ethyl-6,8-difluoro-1,4-dihydro-4-oxo-7-(1-pyrrolidinyl)quinoline-3-carboxylic acid]: the MIC in the test on Shigella sonnei IID 969 was 0.2 µg/mL (≈ 0.621 µM); in the test with Proteus vulgaris 3167, no more than 0.05 µg/mL; in test [1], no more than 0.05 µg/mL; in test [2], no more than 0.05 µg/mL; in the test with P. mirabilis IID 994, 0.1 µg/mL (≈ 0.31 µM); in test [3] it was 0.39 µg/mL (≈ 1.21 µM). The MIC is 6.25 µg/mL (≈ 19.4 µM) in test [4]; 1.56 µg/mL (≈ 4.84 µM) in [5]; 0.39 µg/mL (≈ 1.21 µM) in [6]; 0.39 µg/mL (≈ 1.21 µM) in [7]; 1.56 µg/mL (≈ 4.84 µM) in [8]; 0.2 µg/mL (≈ 0.621 µM) in test [9]. The MIC in test [10] was 0.1 µg/mL (≈ 0.31 µM); with P. morganii IID 602, 0.39 µg/mL (≈ 1.21 µM); in [11], 0.39 µg/mL (≈ 1.21 µM); in test [12], 1.56 µg/mL (≈ 4.84 µM); in the test on S. epidermidis IID 866, 0.2 µg/mL (≈ 0.621 µM); in the test on E. coli ATCC 10536, 0.2 µg/mL (≈ 0.621 µM). The MIC was 6.25 µg/mL (≈ 19.4 µM) in the test with P. aeruginosa IFO 12689 and 0.1 µg/mL (≈ 0.31 µM) with S. aureus Terajima.
As to `CCn1cc(C(=O)O)c(=O)c2cc(F)c(N3CCOCC3)c(F)c21` [Example 12, 1-Ethyl-6,8-difluoro-1,4-dihydro-7-(4-morpholinyl)4-oxoquinoline-3-carboxylic acid], the MIC in the test with Shigella sonnei IID 969 is 0.2 µg/mL (≈ 0.591 µM); in the test with Proteus vulgaris 3167 it was no more than 0.05 µg/mL; in test [1], no more than 0.05 µg/mL; in test [2] it was no more than 0.05 µg/mL; in the test on P. mirabilis IID 994 it was 0.2 µg/mL (≈ 0.591 µM); in [3] it was 0.78 µg/mL (≈ 2.31 µM). Besides, the MIC is 12.5 µg/mL (≈ 36.9 µM) in test [4]; 1.56 µg/mL (≈ 4.61 µM) in [5]; 0.39 µg/mL (≈ 1.15 µM) in test [6]; 1.56 µg/mL (≈ 4.61 µM) in test [7]; 1.56 µg/mL (≈ 4.61 µM) in test [8]; 0.2 µg/mL (≈ 0.591 µM) in [9]. Besides, the MIC worked out at 0.2 µg/mL (≈ 0.591 µM) in test [10]; 0.78 µg/mL (≈ 2.31 µM) with P. morganii IID 602; 1.56 µg/mL (≈ 4.61 µM) in test [11]; 1.56 µg/mL (≈ 4.61 µM) in test [12]; 0.39 µg/mL (≈ 1.15 µM) in the test on S. epidermidis IID 866; 0.39 µg/mL (≈ 1.15 µM) in the test on E. coli ATCC 10536. Besides, the MIC worked out at 12.5 µg/mL (≈ 36.9 µM) with P. aeruginosa IFO 12689 and 0.39 µg/mL (≈ 1.15 µM) in the test on S. aureus Terajima.
For `CCn1cc(C(=O)O)c(=O)c2cc(F)c(N3CCC(N(C)C)CC3)c(F)c21` [Example 13, 1-Ethyl-6,8-difluoro-1,4-dihydro-7-(4-dimethylamino-1-piperidinyl)-4-oxoquinoline-3-carboxylic acid], the MIC in the test with Shigella sonnei IID 969 is 0.1 µg/mL (≈ 0.264 µM); in the test on Proteus vulgaris 3167 it was 0.1 µg/mL (≈ 0.264 µM); in [1] it was 0.1 µg/mL (≈ 0.264 µM); in test [2], no more than 0.05 µg/mL; in the test on P. mirabilis IID 994, 0.39 µg/mL (≈ 1.03 µM); in test [3], 0.39 µg/mL (≈ 1.03 µM). Further, the MIC in test [4] was 12.5 µg/mL (≈ 32.9 µM); in test [5], 0.78 µg/mL (≈ 2.06 µM); in test [6], 0.78 µg/mL (≈ 2.06 µM); in [7] it was 0.78 µg/mL (≈ 2.06 µM); in test [8] it was 3.13 µg/mL (≈ 8.25 µM); in test [9], no more than 0.05 µg/mL. Besides, the MIC in test [10] amounted to 0.39 µg/mL (≈ 1.03 µM); with P. morganii IID 602, 1.56 µg/mL (≈ 4.11 µM); in test [11], 6.25 µg/mL (≈ 16.5 µM); in [12], 0.78 µg/mL (≈ 2.06 µM); in the test on S. epidermidis IID 866, 0.39 µg/mL (≈ 1.03 µM); with E. coli ATCC 10536 it was 0.2 µg/mL (≈ 0.527 µM). The MIC was 25 µg/mL (≈ 65.9 µM) with P. aeruginosa IFO 12689 and 0.39 µg/mL (≈ 1.03 µM) with S. aureus Terajima.
